Tested on: 253994-281-T-J1-PDC KRAS-mutant spheroids with HUVEC/MSC, viability
Experiment: Anticancer human tumor 253994-281-T-J1-PDC patient-derived colorectal carcinoma cell line growth inhibition [KRAS2]
Conditions: for IC50: curve of first compound; for viability, T/C: stronger effect = lower value
Summary of the method: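 KRAS-mutant tumor cells were grown as spheroids with HUVEC endothelial cells and human MSCs as stroma. Targeted agents were tested alone and with KRAS pathway inhibitors. Doses started at or near clinical Cmax, or 10 microM, descending half-log.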

[1] = second compound 0.1 µM, first compound 0.0316 µM
[2] = second compound 0.1 µM, first compound 0.1 µM
[3] = second compound 0.1 µM, first compound 0.316 µM
[4] = second compound 0.1 µM, first compound 1 µM
[5] = second compound 0.1 µM, first compound 3.16 µM
[6] = second compound 0.316 µM, first compound 0.0316 µM
[7] = second compound 0.316 µM, first compound 0.1 µM
[8] = second compound 0.316 µM, first compound 0.316 µM
[9] = second compound 0.316 µM, first compound 1 µM
[10] = second compound 0.316 µM, first compound 3.16 µM
[11] = second compound 1 µM, first compound 0.0316 µM
[12] = second compound 1 µM, first compound 0.1 µM
[13] = second compound 1 µM, first compound 0.316 µM
[14] = second compound 1 µM, first compound 1 µM
[15] = second compound 1 µM, first compound 3.16 µM
[16] = second compound 3.16 µM, first compound 0.0316 µM
[17] = second compound 3.16 µM, first compound 0.1 µM
[18] = second compound 3.16 µM, first compound 0.316 µM
[19] = second compound 3.16 µM, first compound 1 µM
[20] = second compound 3.16 µM, first compound 3.16 µM
[21] = second compound 10 µM, first compound 0.0316 µM
[22] = second compound 10 µM, first compound 0.1 µM
[23] = second compound 10 µM, first compound 0.316 µM
[24] = second compound 10 µM, first compound 1 µM
[25] = second compound 10 µM, first compound 3.16 µM
[26] = second compound 0.1 µM, first compound 10 µM
[27] = second compound 0.316 µM, first compound 10 µM
[28] = second compound 1 µM, first compound 10 µM
[29] = second compound 3.16 µM, first compound 10 µM
[30] = second compound 10 µM, first compound 10 µM
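Further: spheroids exposed to agents for seven days before readout.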
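Wherever viability, T/C is given: percent of DMSO vehicle control viability.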

SMILES | IC50 (second compound 0.1 µM) | IC50 (second compound 0.316 µM) | IC50 (second compound 1 µM) | IC50 (second compound 3.16 µM) | IC50 (second compound 10 µM) | viability, T/C [1] | viability, T/C [2] | viability, T/C [3] | viability, T/C [4] | viability, T/C [5] | viability, T/C [6] | viability, T/C [7] | viability, T/C [8] | viability, T/C [9] | viability, T/C [10] | viability, T/C [11] | viability, T/C [12] | viability, T/C [13] | viability, T/C [14] | viability, T/C [15] | other results
CC1COCCN1c1cc(-c2ccnn2C)c2ccnc(-c3ccn[nH]3)c2n1 (stereo not given) + CC1OCC2(CCN(c3cnc(Sc4ccnc(N)c4Cl)c(N)n3)CC2)C1N | 280 nM | 141 nM | 116 nM | 49.7 nM | < 10 nM | 81.8% | 62.9% | 44% | 47% | 53.1% | 83% | 55.4% | 33.3% | 36.4% | 43.6% | 70.4% | 52.8% | 30.9% | 27.6% | 38% | viability, T/C (second compound 0.1 µM, first compound 0.01 µM): 87%; viability, T/C (second compound 0.316 µM, first compound 0.01 µM): 87.5%; viability, T/C (second compound 1 µM, first compound 0.01 µM): 75.2%; viability, T/C (second compound 3.16 µM, first compound 0.01 µM): 59.5%; viability, T/C [16]: 58.9%; viability, T/C [17]: 35.8%; viability, T/C [18]: 24.1%; viability, T/C [19]: 24.3%; viability, T/C [20]: 28.2%; viability, T/C (second compound 10 µM, first compound 0.01 µM): 43%; viability, T/C [21]: 53.4%; viability, T/C [22]: 25.1%; viability, T/C [23]: 16.7%; viability, T/C [24]: 18.9%; viability, T/C [25]: 23.6%
CCNC(=O)CC1N=C(c2ccc(Cl)cc2)c2cc(OC)ccc2-n2c(C)nnc21 (stereo not given) + CC1OCC2(CCN(c3cnc(Sc4ccnc(N)c4Cl)c(N)n3)CC2)C1N | > 10000 nM | > 10000 nM | 3860 nM | 648 nM | 63.7 nM | 90.4% | 100% | 86.5% | 82% | 74.2% | 85.2% | 81.3% | 75.5% | 65% | 74% | 80% | 79.9% | 79% | 64.1% | 54.6% | viability, T/C [26]: 67%; viability, T/C [27]: 65%; viability, T/C [28]: 35.1%; viability, T/C [16]: 61.5%; viability, T/C [17]: 78%; viability, T/C [18]: 61.5%; viability, T/C [19]: 40.9%; viability, T/C [20]: 34.9%; viability, T/C [29]: 23.1%; viability, T/C [21]: 52.8%; viability, T/C [22]: 47.6%; viability, T/C [23]: 43.5%; viability, T/C [24]: 36.4%; viability, T/C [25]: 26.6%; viability, T/C [30]: 16.5%
Cn1nccc1Nc1nccc(-c2cc3c(s2)C(C)(C)N(CCN2CCOCC2)C3=O)n1 + CC1OCC2(CCN(c3cnc(Sc4ccnc(N)c4Cl)c(N)n3)CC2)C1N | 1460 nM | 745 nM | 280 nM | 110 nM | < 31.6 nM | 81.1% | 82.9% | 74.9% | 59% | 32.3% | 77% | 79.2% | 63.1% | 45.6% | 26% | 68.3% | 64.6% | 48.3% | 22.5% | 13.2% | viability, T/C [26]: 18.9%; viability, T/C [27]: 17.9%; viability, T/C [28]: 15%; viability, T/C [16]: 60.8%; viability, T/C [17]: 50.2%; viability, T/C [18]: 34.8%; viability, T/C [19]: 15.3%; viability, T/C [20]: 10%; viability, T/C [29]: 8.2%; viability, T/C [21]: 39.8%; viability, T/C [22]: 28.4%; viability, T/C [23]: 15.4%; viability, T/C [24]: 8.1%; viability, T/C [25]: 4.83%; viability, T/C [30]: 6.14%
